Assay results from ChEMBL document CHEMBL1201862, “PubChem BioAssay data set” (2004).
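Compound exposure: 48 hours, 5 concentrations, 96-well plates. Abbreviation: GI50, concentration required for 50% inhibition of growth.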 The source made the active and inactive calls. Cut-off read from the data, not from the text of the source: active = GI50 up to about 1.1 µM and inactive = higher.

Columns and labels:
Assay in all cases: DTP human tumour cell line panel, 48 h
[1] = system: 786-0
[2] = system: A498
[3] = system: CAKI-1
[4] = system: DU-145
[5] = system: HCT-116
[6] = system: HCT-15
[7] = system: HOP-62
[8] = system: KM12
[9] = system: MOLT-4
[10] = system: NCI-H226
[11] = system: NCI/ADR-RES
[12] = system: RPMI-8226
[13] = system: SF-539
[14] = system: SK-MEL-2
[15] = system: T47D
[16] = system: UACC-257
[17] = system: NCI-H522
[18] = system: SK-MEL-28
[19] = system: SW-620
[20] = system: U-251

Compound | GI50 [1] | GI50 [2] | GI50 [3] | GI50 [4] | GI50 [5] | GI50 [6] [µM] | GI50 [7] | GI50 [8] | GI50 [9] | GI50 [10] | GI50 [11] | GI50 [12] | GI50 [13] | GI50 [14] | GI50 [15] | GI50 [16] | GI50 [17] | GI50 [18] | GI50 [19] | GI50 [20]
CCOC(=O)c1c(N=C(S)Nc2ccc(Cl)cc2)sc2c1CCN(C)C2 | > 100 µM (inactive) | > 100 µM (inactive) | > 100 µM (inactive) | > 100 µM (inactive) | > 100 µM (inactive) | 97.9 | > 100 µM (inactive) | > 100 µM (inactive) | 41.8 µM (inactive) | > 100 µM (inactive) | > 100 µM (inactive) | 33.9 µM (inactive) | 72.6 µM (inactive) | > 100 µM (inactive) | > 100 µM (inactive) | > 100 µM (inactive) | – | – | – | –
O=C(CC(=O)N1N=C(N2CCCCC2)CC1c1ccccc1)Nc1ccccc1 (stereo not given) | > 100 µM (inactive) | > 100 µM (inactive) | > 100 µM (inactive) | > 100 µM (inactive) | > 100 µM (inactive) | > 100 | > 100 µM (inactive) | > 100 µM (inactive) | > 100 µM (inactive) | > 100 µM (inactive) | > 100 µM (inactive) | – | > 100 µM (inactive) | > 100 µM (inactive) | > 100 µM (inactive) | > 100 µM (inactive) | > 100 µM (inactive) | > 100 µM (inactive) | > 100 µM (inactive) | > 100 µM (inactive)
CC[C@@H]1CC[C@@H]2[C@H](CC[C@]3(C)[C@@H](O[N+](=O)[O-])CC[C@@H]23)[C@H]1C(C)=O | 50.7 µM (inactive) | 31 µM (inactive) | 50.7 µM (inactive) | 45.7 µM (inactive) | 23.7 µM (inactive) | 22.2 | 46.3 µM (inactive) | 17.3 µM (inactive) | 24.3 µM (inactive) | 26.5 µM (inactive) | 21.8 µM (inactive) | 9.02 µM (inactive) | 38.3 µM (inactive) | – | 12.9 µM (inactive) | 20 µM (inactive) | 28.8 µM (inactive) | 30.3 µM (inactive) | 40.4 µM (inactive) | 32.4 µM (inactive)
COC(=O)NC1(NC(=O)OC)NC(=O)c2cc(OC)c(OC)c(OC)c2N1 | 39 µM (inactive) | 32.2 µM (inactive) | 63.8 µM (inactive) | 32 µM (inactive) | 26.1 µM (inactive) | 8.49 | 21.1 µM (inactive) | 7.19 µM (inactive) | 63.2 µM (inactive) | 31.1 µM (inactive) | 15.1 µM (inactive) | – | 23.6 µM (inactive) | 0.0132 µM (active) | 43.5 µM (inactive) | > 100 µM (inactive) | 6.98 µM (inactive) | 84.3 µM (inactive) | 18.2 µM (inactive) | < 0.01 µM (active)
NCCCNc1ccc2c(c1)[n+]([O-])c1ccccc1[n+]2[O-] | 29.2 µM (inactive) | 17.2 µM (inactive) | – | 27 µM (inactive) | 17.3 µM (inactive) | 22.9 | 22.7 µM (inactive) | 25.4 µM (inactive) | 15.7 µM (inactive) | 12.3 µM (inactive) | > 100 µM (inactive) | 17.6 µM (inactive) | 20.6 µM (inactive) | – | 22.7 µM (inactive) | 27.2 µM (inactive) | 13.6 µM (inactive) | 59.7 µM (inactive) | 33 µM (inactive) | 19.5 µM (inactive)
COC(=O)c1cn(CCCCO)nn1 | > 100 µM (inactive) | – | > 100 µM (inactive) | > 100 µM (inactive) | > 100 µM (inactive) | > 100 | > 100 µM (inactive) | > 100 µM (inactive) | > 100 µM (inactive) | > 100 µM (inactive) | > 100 µM (inactive) | – | > 100 µM (inactive) | > 100 µM (inactive) | 3.65 µM (inactive) | > 100 µM (inactive) | – | > 100 µM (inactive) | > 100 µM (inactive) | > 100 µM (inactive)
CC1CC(C#N)=C2NCCN2C1=O (stereo not given) | > 100 µM (inactive) | – | 51.9 µM (inactive) | > 100 µM (inactive) | – | > 100 | > 100 µM (inactive) | > 100 µM (inactive) | > 100 µM (inactive) | > 100 µM (inactive) | > 100 µM (inactive) | > 100 µM (inactive) | > 100 µM (inactive) | > 100 µM (inactive) | > 100 µM (inactive) | 78 µM (inactive) | 95.1 µM (inactive) | > 100 µM (inactive) | 31.9 µM (inactive) | > 100 µM (inactive)
Cc1ccc(/C(=C/C=C(C#N)C#N)Sc2cc(Cl)ccc2Cl)cc1 | 1.92 µM (inactive) | – | 4.76 µM (inactive) | 3.4 µM (inactive) | 0.83 µM (active) | 3.06 | 3.71 µM (inactive) | 4.78 µM (inactive) | – | 3.02 µM (inactive) | 2.42 µM (inactive) | – | 3.18 µM (inactive) | 8.75 µM (inactive) | 12.9 µM (inactive) | 2.78 µM (inactive) | 3.55 µM (inactive) | 8.57 µM (inactive) | 1.66 µM (inactive) | 3.21 µM (inactive)
Cc1cc(-c2ccc(C(=O)C(c3ccccc3)(c3ccccc3)c3ccccc3)[nH]2)on1 | 18.4 µM (inactive) | 37.1 µM (inactive) | 33.1 µM (inactive) | 14.2 µM (inactive) | 12.5 µM (inactive) | 17.5 | 17.1 µM (inactive) | 15.6 µM (inactive) | 21.8 µM (inactive) | 16.9 µM (inactive) | 15.8 µM (inactive) | 14.4 µM (inactive) | 29.7 µM (inactive) | 14.6 µM (inactive) | 37.8 µM (inactive) | 32 µM (inactive) | – | 17.6 µM (inactive) | 19.8 µM (inactive) | 12.9 µM (inactive)
COC(=O)c1cncc2c1CC1C3(C(=O)OC)C=NC(C4C(CO)=CCC43)C21C (stereo not given) | > 100 µM (inactive) | > 100 µM (inactive) | > 100 µM (inactive) | > 100 µM (inactive) | > 100 µM (inactive) | > 100 | > 100 µM (inactive) | > 100 µM (inactive) | > 100 µM (inactive) | > 100 µM (inactive) | > 100 µM (inactive) | – | > 100 µM (inactive) | > 100 µM (inactive) | > 100 µM (inactive) | > 100 µM (inactive) | > 100 µM (inactive) | > 100 µM (inactive) | > 100 µM (inactive) | > 100 µM (inactive)
Cc1csc2[n+]1C(=O)/C(=C\c1ccc([N+](=O)[O-])cc1)S2 | 24.2 µM (inactive) | 22.7 µM (inactive) | 25.2 µM (inactive) | 39 µM (inactive) | 17.8 µM (inactive) | – | 28.5 µM (inactive) | 20.5 µM (inactive) | 29.5 µM (inactive) | 4.1 µM (inactive) | 25.4 µM (inactive) | 16.6 µM (inactive) | 36.1 µM (inactive) | 25.6 µM (inactive) | 21.2 µM (inactive) | 29.9 µM (inactive) | – | 36.9 µM (inactive) | 40.8 µM (inactive) | 18.7 µM (inactive)
c1ccc2c(c1)[nH]c1nc3cc(-c4ccc5nc6c(nc5c4)[nH]c4ccccc46)ccc3nc12 | > 100 µM (inactive) | > 100 µM (inactive) | > 100 µM (inactive) | > 100 µM (inactive) | > 69.7 µM (inactive) | – | > 93.5 µM (inactive) | > 100 µM (inactive) | 0.166 µM (active) | > 100 µM (inactive) | – | 38 µM (inactive) | – | > 100 µM (inactive) | > 100 µM (inactive) | > 100 µM (inactive) | 5.42 µM (inactive) | > 100 µM (inactive) | > 100 µM (inactive) | 69.3 µM (inactive)
O=Cc1[nH]c(=O)[nH]c(=O)c1C(=O)O | > 100 µM (inactive) | – | > 100 µM (inactive) | > 100 µM (inactive) | > 100 µM (inactive) | > 100 | > 100 µM (inactive) | > 100 µM (inactive) | > 100 µM (inactive) | > 100 µM (inactive) | > 100 µM (inactive) | > 100 µM (inactive) | > 100 µM (inactive) | > 100 µM (inactive) | > 100 µM (inactive) | > 100 µM (inactive) | > 100 µM (inactive) | > 100 µM (inactive) | > 100 µM (inactive) | > 100 µM (inactive)
CC1CC(=O)NC2CC1C2(C)C (stereo not given) | > 100 µM (inactive) | – | – | > 100 µM (inactive) | – | > 100 | – | > 100 µM (inactive) | > 100 µM (inactive) | > 100 µM (inactive) | – | > 100 µM (inactive) | – | > 100 µM (inactive) | > 100 µM (inactive) | > 100 µM (inactive) | > 100 µM (inactive) | > 100 µM (inactive) | > 100 µM (inactive) | > 100 µM (inactive)
CCC1(CC)C(=O)N(C(=O)c2ccc(C)cc2)N(C(=O)c2ccc(C)cc2)C1=O | > 75 µM (inactive) | – | 52 µM (inactive) | > 75 µM (inactive) | 32.2 µM (inactive) | 32 | 65.6 µM (inactive) | 50.9 µM (inactive) | 20 µM (inactive) | > 75 µM (inactive) | 34.2 µM (inactive) | 35.4 µM (inactive) | – | > 75 µM (inactive) | 36.1 µM (inactive) | > 75 µM (inactive) | 16.8 µM (inactive) | > 75 µM (inactive) | 29.8 µM (inactive) | 35 µM (inactive)
NC(Cc1cc(I)c(Oc2ccc(O)c(I)c2)c(I)c1)C(=O)O (stereo not given) [RATHYRONINE] | > 100 µM (inactive) | 35.7 µM (inactive) | > 100 µM (inactive) | > 100 µM (inactive) | > 100 µM (inactive) | > 100 | > 100 µM (inactive) | > 100 µM (inactive) | – | > 100 µM (inactive) | > 100 µM (inactive) | 29.9 µM (inactive) | – | 19.9 µM (inactive) | 81.7 µM (inactive) | > 100 µM (inactive) | 36.1 µM (inactive) | 38.9 µM (inactive) | > 100 µM (inactive) | 43.4 µM (inactive)
